From patent US20230295157A1, “3-(1H-IMIDAZOL-2-YL)-2,3,8,8A-TETRAHYDROINDOLIZIN-5(1H)-ONE DERIVATIVES USEFUL AS FACTOR XIA INHIBITORS” (JANSSEN PHARMACEUTICA NV, priority 2020, published 2023)
Like-named read-outs stand apart in the source and are kept apart here.

Legend:
[1] = target: human plasma kallikrein (Homo sapiens (Human), UniProt P03952); assay: Kallikrein inhibition assay (FLINT) utilizing a quenched AMC peptide substrate; type: biochemical; conditions: 30 min preincubation, read-out: Kallikrein Kin Inh IC50
Procedure, shortened: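 Enzyme (2 nM final) pre-incubated 30 min at room temperature with compound (11-point, 3-fold, top 1 μM, 2% DMSO), then 50 μM Z-Gly-Pro-Arg-AMC added in Tris pH 7.5 buffer. Kinetic fluorescence 340/440 nm every 5 min over 30 min; IC50 from 4-parameter logistic fit.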

[2] = target: Factor XIa (Homo sapiens (Human), UniProt P03951); assay: Factor XIa inhibition assay (FLINT) utilizing a fluorophore-quencher pair peptide substrate; type: biochemical; conditions: 30 min preincubation, kinetic reads over 30 min, read-out: FXIa Kin Inh IC50
Procedure, shortened: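 FXIa ([…]) preincubated 30 min with compound (11-point 3-fold dilution, top 100 nM, 2% DMSO), then 15 μM quenched FXI Arg146-based peptide added; Tris pH 7.5, CaCl2, BSA, CHAPS. Fluorescence 485/520 nm read kinetically every 5 min over 30 min at RT; IC50 by 4-parameter fit.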

[3] = kinetic reads over 30 min, Z-Gly-Pro-Arg-AMC substrate 50 μM
[4] = 5Fam-KLTRAETV-K5Tamra substrate 15 μM
[5] = 5Fam-[…]-K5Tamra substrate 15 μM

Sequence of Factor XIa (P03951 388-625): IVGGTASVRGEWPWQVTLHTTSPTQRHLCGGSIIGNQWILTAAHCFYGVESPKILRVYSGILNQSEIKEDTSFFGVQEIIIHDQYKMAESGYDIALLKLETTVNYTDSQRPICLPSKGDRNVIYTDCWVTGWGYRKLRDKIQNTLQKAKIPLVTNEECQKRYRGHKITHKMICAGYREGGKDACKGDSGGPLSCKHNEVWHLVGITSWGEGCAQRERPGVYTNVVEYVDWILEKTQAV
Sequence of Factor XIa (P03951 19-387 partner): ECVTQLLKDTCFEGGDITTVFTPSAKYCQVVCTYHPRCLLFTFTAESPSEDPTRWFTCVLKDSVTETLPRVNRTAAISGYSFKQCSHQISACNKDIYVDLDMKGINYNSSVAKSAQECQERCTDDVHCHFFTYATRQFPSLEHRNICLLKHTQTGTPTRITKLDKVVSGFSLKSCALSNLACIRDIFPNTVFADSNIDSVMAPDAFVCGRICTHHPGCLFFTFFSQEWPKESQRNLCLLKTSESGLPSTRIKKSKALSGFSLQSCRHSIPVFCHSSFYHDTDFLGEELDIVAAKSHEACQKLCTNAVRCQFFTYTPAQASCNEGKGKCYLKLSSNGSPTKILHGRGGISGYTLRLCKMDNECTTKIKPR
Sequence of human plasma kallikrein (P03952 391-638): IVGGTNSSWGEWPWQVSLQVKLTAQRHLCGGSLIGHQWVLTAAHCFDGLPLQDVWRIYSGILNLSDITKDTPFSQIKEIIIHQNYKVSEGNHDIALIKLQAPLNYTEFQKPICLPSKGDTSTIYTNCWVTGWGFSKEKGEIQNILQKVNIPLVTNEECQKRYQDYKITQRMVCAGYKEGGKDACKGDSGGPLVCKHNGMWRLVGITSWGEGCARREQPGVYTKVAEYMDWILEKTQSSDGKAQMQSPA
Sequence of human plasma kallikrein (P03952 20-390 partner): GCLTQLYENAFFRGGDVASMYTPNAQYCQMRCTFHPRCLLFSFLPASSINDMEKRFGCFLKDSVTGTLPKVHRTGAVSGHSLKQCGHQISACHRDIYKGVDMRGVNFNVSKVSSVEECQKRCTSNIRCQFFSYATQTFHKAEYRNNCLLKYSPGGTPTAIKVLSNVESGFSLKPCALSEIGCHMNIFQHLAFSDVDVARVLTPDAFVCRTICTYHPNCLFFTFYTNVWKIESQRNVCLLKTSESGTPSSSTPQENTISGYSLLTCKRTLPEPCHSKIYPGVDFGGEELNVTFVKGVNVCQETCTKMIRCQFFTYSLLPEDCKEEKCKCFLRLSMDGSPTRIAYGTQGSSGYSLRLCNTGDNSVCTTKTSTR

SMILES	IC50 [1, 3] [µM]	IC50 [2, 4] [nM]	IC50 [2, 5] [nM]	IC50 ([1]; μM, kinetic reads) [µM]
O=C1C=C(c2c(-n3cnnn3)ccc(Cl)c2F)C[C@H]2CC[C@H](c3nc(F)c(-c4ccnc(-n5cncn5)c4F)[nH]3)N12 (single isomer, unassigned) [Example 92, 7-[3-Chloro-2-fluoro-6-(tetrazol-1-yl)phenyl]-3-[4-fluoro-5-[3-fluoro-2-(1,2,4-triazol-1-yl)-4-pyridyl]-1H-imidazol-2-yl]-2,3,8,8a-tetrahydro-1H-indolizin-5-one]	0.006	3.7		
CC12CC[C@@H](c3ncc(-c4ccnc(CO)c4F)[nH]3)N1C(=O)C=C(c1c(-n3cnnn3)ccc(Cl)c1F)C2 (stereo partly drawn) [Example 391, (3S)-7-(3-chloro-2-fluoro-6-(1H-tetrazol-1-yl)phenyl)-3-(5-(3-fluoro-2-(hydroxymethyl)pyridin-4-yl)-1H-imidazol-2-yl)-8a-methyl-2,3,8,8a-tetrahydroindolizin-5(1H)-one]	0.0354	33.3		
Cn1ncc(NC(=O)C2CC2)c1-c1c[nH]c([C@@H]2CC[C@H]3CC(c4c(-n5cnnn5)ccc(Cl)c4F)=CC(=O)N32)n1 [Example 247, N-[5-[2-[(3S,8aS)-7-[3-Chloro-2-fluoro-6-(tetrazol-1-yl)phenyl]-5-oxo-2,3,8,8a-tetrahydro-1H-indolizin-3-yl]-1H-imidazol-4-yl]-1-methyl-pyrazol-4-yl]cyclopropanecarboxamide]	0.0156	0.7		
Cn1cc(-c2ccccc2NC(=O)C2CC2)nc1[C@@H]1CC[C@H]2CC(c3c(-n4cnnn4)ccc(Cl)c3F)=CC(=O)N21 (relative stereo) [Example 304, N-(2-(2-((3S,8aS*)-7-(3-Chloro-2-fluoro-6-(1H-tetrazol-1-yl)phenyl)-5-oxo-1,2,3,5,8,8a-hexahydroindolizin-3-yl)-1-methyl-1H-imidazol-4-yl)phenyl)cyclopropanecarboxamide]	0.323		> 100	
O=C1OCCN1c1ccc(-c2cnc([C@@H]3CCC4CC(c5c(-n6cnnn6)ccc(Cl)c5F)=CC(=O)N43)[nH]2)cc1 (stereo partly drawn) [Example 318, 3-(4(2-((3S)-7-(3-Chloro-2-fluoro-6-(1H-tetrazol-1-yl)phenyl)-5-oxo-1,2,3,5,8,8a-hexahydroindolizin-3-yl)-1H-imidazol-5-yl)phenyl)oxazolidin-2-one]	0.0715	54.1		
[2H]C([2H])(O)c1nccc(-c2nc([C@@H]3CC[C@@H]4CC(c5c(-n6cnnn6)ccc(Cl)c5F)=CC(=O)N43)[nH]c2Br)c1F [Example 184, (3S,8aR)-3-(5-bromo-4-(3-fluoro-2-(hydroxymethyl-d2)pyridin-4-yl)-1H-imidazol-2-yl)-7-(3-choro-2-fluoro-6-(1H-tetrazol-1-yl)phenyl)-2,3,8,8a-tetrahydroindolizin-5(1H)-one]	0.21		7.3	
CCN(CCO)c1nccc(-c2cnc([C@@H]3CC[C@H]4CC(c5c(-n6cnnn6)ccc(Cl)c5F)=CC(=O)N43)[nH]2)c1F (single isomer, unassigned) [Example 135, (3S,8a*S)-7-(3-chloro-2-fluoro-6-(1H-tetrazol-1-yl)phenyl)-3-(5-(2-(ethyl(2-hydroxyethyl)amino)-3-fluoropyridin-4-yl)-1H-imidazol-2-yl)-2,3,8,8a-tetrahydroindolizin-5(1H)-one]	0.0155	22.5		
O=C1C=C(c2c(-n3cnnn3)ccc(Cl)c2F)CC2CC[C@@H](c3nc(-c4ccnc(OC(F)F)c4)c(F)[nH]3)N12 (stereo in doubt) [Example 3, (S)-7-[3-Chloro-2-fluoro-6-(tetrazol-1-yl)phenyl]-3-[4-[2-(difluoromethoxy)-4-pyridyl]-5-fluoro-1H-imidazol-2-yl]-2,3,8,8a-tetrahydro-1H-indolizin-5-one]	0.0054		3.9	
O=C1C=C(c2c(-n3cc(C(F)(F)F)nn3)ccc(Cl)c2F)C[C@@H]2CC[C@H](c3ncc(-c4c[nH]c5ncccc45)[nH]3)N12 (single isomer, unassigned) [Example 140, (3*R,8aS)-3-(5-(1H-pyrrolo[2,3-b]pyridin-3-yl)-1H-imidazol-2-yl)-7-(3-chloro-2-fluoro-6-(4-(trifluoromethyl)-1H-1,2,3-triazol-1-yl)phenyl)-2,3,8,8a-tetrahydroindolizin-5(1H)-one]	0.0062	2.9		
COC(=O)Nc1cc(-c2cnc([C@@H]3CC[C@@H]4CC(c5c(-n6cnnn6)ccc(Cl)c5F)=CC(=O)N43)[nH]2)ccn1 [Example 99, Methyl (4-(2-((3S,8aR)-7-(3-chloro-2-fluoro-6-(1H-tetrazol-1-yl)phenyl)-5-oxo-1,2,3,5,8,8a-hexahydroindolizin-3-yl)-1H-imidazol-5-yl)pyridin-2-yl)carbamate]	0.0032	2.3		
C[C@@H](Oc1nccc(-c2cnc([C@@H]3CC[C@@H]4CC(c5c(-n6cnnn6)ccc(Cl)c5F)=CC(=O)N43)[nH]2)c1F)c1ncco1 (single isomer, unassigned) [Example 141, (3*S,8a*R)-7-(3-chloro-2-fluoro-6-(1H-tetrazol-1-yl)phenyl)-3-(5-(3-fluoro-2-((*R)-1-(oxazol-2-yl)ethoxy)pyridin-4-yl)-1H-imidazol-2-yl)-2,3,8,8a-tetrahydroindolizin-5(1H)-one]	0.013	10.8		
O=C1C=C(c2c(-n3cnnn3)ccc(Cl)c2F)C[C@H]2CC[C@@H](c3ncc(-c4ccnc5ccsc45)[nH]3)N12 [Example 387, (3S,8aR)-7-(3-chloro-2-fluoro-6-(1H-tetrazol-1-yl)phenyl)-3-(5-(thieno[3,2-b]pyridin-7-yl)-1H-imidazol-2-yl)-2,3,8,8a-tetrahydroindolizin-5(1H)-one]	0.0038	1.3		
Cn1c(=O)[nH]c2ccc(-c3cnc([C@@H]4CC[C@@H]5CC(c6c(-n7cnnn7)ccc(Cl)c6F)=CC(=O)N54)[nH]3)cc21 (relative stereo) [Example 300, 6-(2-((3S,8aR*)-7-(3-Chloro-2-fluoro-6-(1H-tetrazol-1-yl)phenyl)-5-oxo-1,2,3,5,8,8a-hexahydroindolizin-3-yl)-1H-imidazol-5-yl)-1-methyl-1H-benzo[d]imidazol-2(3H)-one]	0.002		1.4	
Nc1ccc(-c2cnc([C@@H]3CC[C@@H]4C(=O)N(c5cc(Cl)ccc5-n5cnnn5)CC(=O)N43)[nH]2)c(F)n1 (single isomer, unassigned) [Example 360, (6S*,8aR*)-6-(5-(6-amino-2-fluoropyridin-3-yl)-1H-imidazol-2-yl)-2-(5-chloro-2-(1H-tetrazol-1-yl)phenyl)hexahydropyrrolo[1,2-a]pyrazine-1,4-dione]	0.11		12	
CC(=O)Nc1cnc(C(F)(F)F)cc1-c1cnc([C@@H]2CC[C@@H]3CC(c4c(-n5cnnn5)ccc(Cl)c4F)=CC(=O)N32)[nH]1 [Example 245, N-[4-[2-[(3S,8aR)-7-[3-Chloro-2-fluoro-6-(tetrazol-1-yl)phenyl]-5-oxo-2,3,8,8a-tetrahydro-1H-indolizin-3-yl]-1H-imidazol-5-yl]-6-(trifluoromethyl)-3-pyridyl]acetamide]	0.558	76.8		
[2H]c1nc([C@@H]2CC[C@@H]3CC(c4c(-n5cnnn5)ccc(Cl)c4F)=CC(=O)N32)[nH]c1-c1ccnc(CO)c1F [Example 117, (3S,8aR)-7-(3-chloro-2-fluoro-6-(1H-tetrazol-1-yl)phenyl)-3-(5-(3-fluoro-2-(hydroxymethyl)pyridin-4-yl)-1H-imidazol-2-yl-4-d)-2,3,8,8a-tetrahydroindolizin-5(1H)-one]	0.0248	2.9		
CC1C[C@@H](c2ncc(-c3ccc(N)nc3Cl)[nH]2)N2C(=O)C=C(c3c(-n4cnnn4)ccc(Cl)c3F)CC12 (stereo partly drawn) [Example 347, (3S)-3-(5-(6-Amino-2-chloropyridin-3-yl)-1H-imidazol-2-yl)-7-(3-chloro-2-fluoro-6-(1H-tetrazol-1-yl)phenyl)-1-methyl-2,3,8,8a-tetrahydroindolizin-5(1H)-one]	0.0055	0.6		
CN(C)C(=O)c1ccccc1-c1c[nH]c([C@@H]2CCC3CC(c4c(-n5cnnn5)ccc(Cl)c4F)=CC(=O)N32)n1 (stereo partly drawn) [Example 288, 2-(2-((3S)-7-(3-Chloro-2-fluoro-6-(1H-tetrazol-1-yl)phenyl)-5-oxo-1,2,3,5,8,8a-hexahydroindolizin-3-yl)-1H-imidazol-4-yl)-N,N-dimethylbenzamide]		> 200		1.1
O=C1C=C(c2c(-n3cc(C(F)(F)F)nn3)ccc(Cl)c2F)C[C@H]2CC[C@@H](c3ncc(-c4ccc5[nH]c(=O)ccc5c4)[nH]3)N12 (single isomer, unassigned) [Example 152, 6-[2-[(3S,8a*R)-7-[3-chloro-2-fluoro-6-[4-(trifluoromethyl)triazol-1-yl]phenyl]-5-oxo-2,3,8,8a-tetrahydro-1H-indolizin-3-yl]-1H-imidazol-5-yl]-1H-quinolin-2-one]	0.001	0.7		
COc1n[nH]cc1-c1cnc([C@@H]2CC[C@@H]3CC(c4c(-n5cnnn5)ccc(Cl)c4F)=CC(=O)N32)[nH]1 [Example 227, (3S,8aR)-7-(3-chloro-2-fluoro-6-(1H-tetrazol-1-yl)phenyl)-3-(5-(3-methoxy-1H-pyrazol-4-yl)-1H-imidazol-2-yl)-2,3,8,8a-tetrahydroindolizin-5(1H)-one]	0.0114	3.5		
